Results published in PubChem BioAssay (NCI).
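Five compound concentrations were applied to cells in 96-well plates for 48 hours; endpoints were derived by simple linear interpolation of the resulting dose-response curve. GI50 is the concentration that inhibits growth by half. Definition used: TGI = concentration required for complete inhibition of growth.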

Assays:
Experiment in all cases: DTP human tumour cell line panel, 48 h
HCT-116 colon = test system: HCT-116 colon
HOP-62 NSCLC = test system: HOP-62 NSCLC
CAKI-1 renal = test system: CAKI-1 renal
MALME-3M melanoma = test system: MALME-3M melanoma
DU-145 prostate = test system: DU-145 prostate
LOX IMVI melanoma = test system: LOX IMVI melanoma
RPMI-8226 leukemia = test system: RPMI-8226 leukemia
UACC-62 melanoma = test system: UACC-62 melanoma
SF-295 CNS = test system: SF-295 CNS
MDA-MB-231 breast = test system: MDA-MB-231 breast
OVCAR-5 ovarian = test system: OVCAR-5 ovarian
UACC-257 melanoma = test system: UACC-257 melanoma
CCRF-CEM leukemia = test system: CCRF-CEM leukemia
SF-268 CNS = test system: SF-268 CNS
MDA-MB-435 = test system: MDA-MB-435
HL-60(TB) leukemia = test system: HL-60(TB) leukemia
OVCAR-4 ovarian = test system: OVCAR-4 ovarian
786-0 renal = test system: 786-0 renal
K-562 leukemia = test system: K-562 leukemia
SF-539 CNS = test system: SF-539 CNS
T-47D breast = test system: T-47D breast
HCT-15 colon = test system: HCT-15 colon
SR leukemia = test system: SR leukemia
EKVX NSCLC = test system: EKVX NSCLC
NCI/ADR-RES ovarian = test system: NCI/ADR-RES ovarian
HS 578T breast = test system: HS 578T breast
MCF7 breast = test system: MCF7 breast
SNB-19 CNS = test system: SNB-19 CNS
NCI-H460 lung = test system: NCI-H460 lung
NCI-H23 lung = test system: NCI-H23 lung
A498 renal = test system: A498 renal
SK-MEL-2 melanoma = test system: SK-MEL-2 melanoma
M14 melanoma = test system: M14 melanoma
TK-10 renal = test system: TK-10 renal
UO-31 renal = test system: UO-31 renal
SW-620 colon = test system: SW-620 colon
ACHN renal = test system: ACHN renal
HOP-92 NSCLC = test system: HOP-92 NSCLC
PC-3 prostate = test system: PC-3 prostate
A549 NSCLC = test system: A549 NSCLC
RXF 393 renal = test system: RXF 393 renal
NCI-H226 lung = test system: NCI-H226 lung
KM12 colon = test system: KM12 colon
U251 CNS = test system: U251 CNS
SK-MEL-5 melanoma = test system: SK-MEL-5 melanoma
COLO 205 colon = test system: COLO 205 colon
MOLT-4 leukemia = test system: MOLT-4 leukemia
HT29 colon = test system: HT29 colon
OVCAR-8 ovarian = test system: OVCAR-8 ovarian
SN12C renal = test system: SN12C renal
OVCAR-3 ovarian = test system: OVCAR-3 ovarian
IGROV1 ovarian = test system: IGROV1 ovarian
HCC-2998 colon = test system: HCC-2998 colon
SK-OV-3 ovarian = test system: SK-OV-3 ovarian
NCI-H522 lung = test system: NCI-H522 lung
BT-549 breast = test system: BT-549 breast
SK-MEL-28 melanoma = test system: SK-MEL-28 melanoma

Work on `COc1ccc2[nH]cc(-c3nc(N)nnc3-c3cn(C)c4ccc(Br)cc34)c2c1` yielded a GI50 (HCT-116 colon) of 3.7 µM, a TGI (HCT-116 colon) of 23.7 µM and a GI50 (HOP-62 NSCLC) of 4.52 µM. The TGI (HOP-62 NSCLC) was 26.2 µM, the GI50 (CAKI-1 renal) was 1.29 µM and the TGI (CAKI-1 renal) was 19.5 µM. The GI50 (MALME-3M melanoma) was 3.36 µM, the TGI (MALME-3M melanoma) was 19.8 µM and the GI50 (DU-145 prostate) was 4.23 µM. It also gave a TGI (DU-145 prostate) of 21.8 µM, a GI50 (LOX IMVI melanoma) of 3.89 µM and a TGI (LOX IMVI melanoma) of 19.9 µM. For the same compound, the GI50 (RPMI-8226 leukemia) was 3.51 µM, the TGI (RPMI-8226 leukemia) was greater than 100 µM and the GI50 (UACC-62 melanoma) was 1.86 µM. The TGI (UACC-62 melanoma) was 11.5 µM, the GI50 (SF-295 CNS) was 2.8 µM and the TGI (SF-295 CNS) was 13 µM. For the same compound, the GI50 (MDA-MB-231 breast) was 4.48 µM, the TGI (MDA-MB-231 breast) was 28.3 µM and the GI50 (OVCAR-5 ovarian) was 4.61 µM. For the same compound, the TGI (OVCAR-5 ovarian) was 30.6 µM, the GI50 (UACC-257 melanoma) was 12.4 µM and the TGI (UACC-257 melanoma) was 46.2 µM. For the same compound, the GI50 (CCRF-CEM leukemia) was 3.57 µM, the TGI (CCRF-CEM leukemia) was greater than 100 µM and the GI50 (SF-268 CNS) was 5.87 µM. For the same compound, the TGI (SF-268 CNS) was 36.1 µM, the GI50 (MDA-MB-435) was 0.414 µM and the TGI (MDA-MB-435) was 1.76 µM. For the same compound, the GI50 (HL-60(TB) leukemia) was 3.41 µM, the TGI (HL-60(TB) leukemia) was greater than 100 µM and the GI50 (OVCAR-4 ovarian) was 4.61 µM. It also gave a TGI (OVCAR-4 ovarian) of 84 µM, a GI50 (786-0 renal) of 4.23 µM and a TGI (786-0 renal) of 25.4 µM. For the same compound, the GI50 (K-562 leukemia) was 1.07 µM, the TGI (K-562 leukemia) was greater than 100 µM and the GI50 (SF-539 CNS) was 3.11 µM. For the same compound, the TGI (SF-539 CNS) was 12 µM, the GI50 (T-47D breast) was 3.31 µM and the TGI (T-47D breast) was 30.1 µM. The GI50 (HCT-15 colon) was 2.86 µM, the TGI (HCT-15 colon) was 22 µM and the GI50 (SR leukemia) was 1.19 µM. For the same compound, the TGI (SR leukemia) was greater than 100 µM, the GI50 (EKVX NSCLC) was 3.95 µM and the TGI (EKVX NSCLC) was 30.2 µM. For the same compound, the GI50 (NCI/ADR-RES ovarian) was 4.34 µM, the TGI (NCI/ADR-RES ovarian) was 50.1 µM and the GI50 (HS 578T breast) was 2.3 µM. It also gave a TGI (HS 578T breast) of 8.63 µM, a GI50 (MCF7 breast) of 1.22 µM and a TGI (MCF7 breast) of 13.5 µM. It also gave a GI50 (SNB-19 CNS) of 4.09 µM, a TGI (SNB-19 CNS) of 20.1 µM and a GI50 (NCI-H460 lung) of 3.03 µM. For the same compound, the TGI (NCI-H460 lung) was 15.6 µM, the GI50 (NCI-H23 lung) was 2.81 µM and the TGI (NCI-H23 lung) was 13 µM. For the same compound, the GI50 (A498 renal) was 2.11 µM, the TGI (A498 renal) was 6.09 µM and the GI50 (SK-MEL-2 melanoma) was 4.02 µM. For the same compound, the TGI (SK-MEL-2 melanoma) was 20.8 µM, the GI50 (M14 melanoma) was 2.66 µM and the TGI (M14 melanoma) was 12.4 µM. The GI50 (TK-10 renal) was 6.45 µM, the TGI (TK-10 renal) was 60.2 µM and the GI50 (UO-31 renal) was 2.31 µM. The TGI (UO-31 renal) was 17.5 µM, the GI50 (SW-620 colon) was 3.85 µM and the TGI (SW-620 colon) was 22.4 µM. For the same compound, the GI50 (ACHN renal) was 4.94 µM, the TGI (ACHN renal) was 32 µM and the GI50 (HOP-92 NSCLC) was 2.58 µM. The TGI (HOP-92 NSCLC) was 17.3 µM, the GI50 (PC-3 prostate) was 2.62 µM and the TGI (PC-3 prostate) was 22.7 µM. The GI50 (A549 NSCLC) was 5.59 µM, the TGI (A549 NSCLC) was 90.3 µM and the GI50 (RXF 393 renal) was 1.8 µM. For the same compound, the TGI (RXF 393 renal) was 4.68 µM, the GI50 (NCI-H226 lung) was 4.29 µM and the TGI (NCI-H226 lung) was 39.8 µM. The GI50 (KM12 colon) was 2.86 µM, the TGI (KM12 colon) was 18.7 µM and the GI50 (U251 CNS) was 3.82 µM. For the same compound, the TGI (U251 CNS) was 26.4 µM, the GI50 (SK-MEL-5 melanoma) was 2.58 µM and the TGI (SK-MEL-5 melanoma) was 8.5 µM. It also gave a GI50 (COLO 205 colon) of 3.48 µM, a TGI (COLO 205 colon) of 12.6 µM and a GI50 (MOLT-4 leukemia) of 3.73 µM. It also gave a TGI (MOLT-4 leukemia) greater than 100 µM, a GI50 (HT29 colon) of 2.69 µM and a TGI (HT29 colon) of 12.1 µM. The GI50 (OVCAR-8 ovarian) was 4.37 µM, the TGI (OVCAR-8 ovarian) was greater than 100 µM and the GI50 (SN12C renal) was 4.5 µM. For the same compound, the TGI (SN12C renal) was 22.8 µM, the GI50 (OVCAR-3 ovarian) was 2.9 µM and the TGI (OVCAR-3 ovarian) was 10.6 µM. For the same compound, the GI50 (IGROV1 ovarian) was 2.89 µM, the TGI (IGROV1 ovarian) was 17.1 µM and the GI50 (HCC-2998 colon) was 6.26 µM. It also gave a TGI (HCC-2998 colon) of 23.7 µM, a GI50 (SK-OV-3 ovarian) of 4.29 µM and a TGI (SK-OV-3 ovarian) of 32.2 µM. It also gave a GI50 (NCI-H522 lung) of 2.4 µM, a TGI (NCI-H522 lung) of 15.4 µM and a GI50 (BT-549 breast) of 4.19 µM. It also gave a TGI (BT-549 breast) of 24.8 µM, a GI50 (SK-MEL-28 melanoma) of 6.81 µM and a TGI (SK-MEL-28 melanoma) of 22.2 µM.
